In PubChem BioAssay AID248 (DTP/NCI, 2004):
“And” between values parts separate entries of the source, which are not always exact repeats. Equal values may be shown once. Toxic doses and inconclusive results are not listed. No stated cut-off is given here; in the data, active means T/C of 150% or more; inactive means T/C below 125%.

Tested on: L1210 leukemia ip in BDF1 mice, survival T/C
Test: NCI In Vivo Anticancer Drug Screen. Data for tumor model L1210 Leukemia (intraperitoneal) in B6D2F1 (BDF1) mice
Details: endpoint: mean survival time, higher = longer survival
In short: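 Survival endpoint. Drug-treated group vs vehicle group, expressed as T divided by C. Tumor passaged by transplantation.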

[1] = dose: 25.0 mg/kg/injection, schedule: Q04DX003 (ip), vehicle: saline
[2] = dose: 50.0 mg/kg/injection, schedule: Q04DX003 (ip), vehicle: saline
[3] = dose: 100.0 mg/kg/injection, schedule: Q01DX001 (ip), vehicle: saline
[4] = dose: 100.0 mg/kg/injection, schedule: Q04DX003 (ip), vehicle: saline
[5] = dose: 200.0 mg/kg/injection, schedule: Q01DX001 (ip), vehicle: saline
[6] = dose: 400.0 mg/kg/injection, schedule: Q01DX001 (ip), vehicle: saline
[7] = dose: 100.0 mg/kg/injection, schedule: Q04DX003 (ip), vehicle: saline with Tween-80
[8] = dose: 200.0 mg/kg/injection, schedule: Q04DX003 (ip), vehicle: saline with Tween-80
[9] = dose: 400.0 mg/kg/injection, schedule: Q04DX003 (ip), vehicle: saline with Tween-80
[10] = dose: 100.0 mg/kg/injection, schedule: Q01DX009 (ip), vehicle: saline with Tween-80
[11] = dose: 200.0 mg/kg/injection, schedule: Q01DX009 (ip), vehicle: saline with Tween-80
[12] = dose: 400.0 mg/kg/injection, schedule: Q01DX009 (ip), vehicle: saline with Tween-80
[13] = dose: 100.0 mg/kg/injection, schedule: Q04DX002 (ip), vehicle: saline with Tween-80

Measured: T/C

O=Nc1c(N=O)c(N=O)c(N=O)c(N=O)c1N=O
inactive: dose: 1.0 mg/kg/injection, schedule: Q01DX015 (ip), vehicle: carboxymethylcellulose (CMC) 101 % of control | dose: 2.0 mg/kg/injection, schedule: Q01DX015 (ip), vehicle: carboxymethylcellulose (CMC) 92 % of control | dose: 4.0 mg/kg/injection, schedule: Q01DX015 (ip), vehicle: carboxymethylcellulose (CMC) 102 % of control | dose: 8.0 mg/kg/injection, schedule: Q01DX015 (ip), vehicle: carboxymethylcellulose (CMC) 91 % of control | [1] 101 % of control | [2] 90 % of control | [3] 107 % of control | [4] 90 % of control | [5] 100 % of control | [6] 100 % of control

OCC1C2CC3C(C2)C13 (stereo unspecified)
inactive: dose: 100.0 mg/kg/injection, schedule: Q01DX001 (ip), vehicle: carboxymethylcellulose (CMC) 101 % of control | dose: 200.0 mg/kg/injection, schedule: Q01DX001 (ip), vehicle: carboxymethylcellulose (CMC) 93 % of control | dose: 400.0 mg/kg/injection, schedule: Q01DX001 (ip), vehicle: carboxymethylcellulose (CMC) 90 % of control

CCSc1n[nH]c(=O)nc1NN
inactive: dose: 10.0 mg/kg/injection, schedule: Q01DX001 (ip), vehicle: acetone 102 % of control | dose: 20.0 mg/kg/injection, schedule: Q01DX001 (ip), vehicle: acetone 96 % of control | dose: 40.0 mg/kg/injection, schedule: Q01DX001 (ip), vehicle: acetone 96 % of control

C=CCOP(=O)(OCC=C)c1ccccc1
inactive: dose: 55.0 mg/kg/injection, schedule: Q01DX Z (ip), vehicle: methylcellulose (MC) 89 % of control | dose: 83.0 mg/kg/injection, schedule: Q01DX Z (ip), vehicle: methylcellulose (MC) 98 % of control | dose: 125.0 mg/kg/injection, schedule: Q01DX Z (ip), vehicle: methylcellulose (MC) 93 % of control

C=CCCN1CCCC1
inactive: dose: 1.5 mg/kg/injection, schedule: Q01DX009 (ip), vehicle: saline with Tween-80 100 % of control | dose: 3.0 mg/kg/injection, schedule: Q01DX009 (ip), vehicle: saline with Tween-80 93 % of control | dose: 6.0 mg/kg/injection, schedule: Q01DX009 (ip), vehicle: saline with Tween-80 103 % of control | dose: 8.0 mg/kg/injection, schedule: Q04DX003 (ip), vehicle: saline with Tween-80 97 % of control and 105 % of control | dose: 12.0 mg/kg/injection, schedule: Q01DX009 (ip), vehicle: saline with Tween-80 98 % of control | dose: 12.0 mg/kg/injection, schedule: Q04DX003 (ip), vehicle: saline with Tween-80 100 % of control and 105 % of control | dose: 18.0 mg/kg/injection, schedule: Q04DX003 (ip), vehicle: saline with Tween-80 103 % of control and 110 % of control | dose: 25.0 mg/kg/injection, schedule: Q01DX009 (ip), vehicle: saline with Tween-80 88 % of control | dose: 25.0 mg/kg/injection, schedule: Q04DX003 (ip), vehicle: saline with Tween-80 103 % of control | dose: 50.0 mg/kg/injection, schedule: Q04DX003 (ip), vehicle: saline with Tween-80 109 % of control

Cc1c(CC#N)cc(C)c2c3c([nH]c12)CCCC3
inactive: dose: 50.0 mg/kg/injection, schedule: Q01DX009 (ip), vehicle: Klucel (hydroxypropylcellulose) (HPC) 95 % of control | dose: 100.0 mg/kg/injection, schedule: Q01DX009 (ip), vehicle: Klucel (hydroxypropylcellulose) (HPC) 98 % of control | dose: 200.0 mg/kg/injection, schedule: Q01DX009 (ip), vehicle: Klucel (hydroxypropylcellulose) (HPC) 91 % of control

Cc1cc(C)c([As](=O)(O)O)c([N+](=O)[O-])c1
inactive: [3] 90 % of control | [5] 101 % of control | [6] 104 % of control

Nc1ccnc2cc(Cl)ccc12
inactive: dose: 75.0 mg/kg/injection, schedule: Q01DX001 (ip), vehicle: other 103 % of control | dose: 150.0 mg/kg/injection, schedule: Q01DX001 (ip), vehicle: other 100 % of control

[N-]=[N+]=NCc1cnccn1
inactive: dose: 12.5 mg/kg/injection, schedule: Q01DX009 (ip), vehicle: saline 103 % of control | dose: 12.5 mg/kg/injection, schedule: Q04DX003 (ip), vehicle: saline 98 % of control | dose: 25.0 mg/kg/injection, schedule: Q01DX009 (ip), vehicle: saline 101 % of control | [1] 98 % of control | [2] 98 % of control

O=[N+]([O-])c1ccc(-c2nc3c(o2)CCC3)cc1
inactive: [7] 98 % of control | [8] 105 % of control | [9] 96 % of control

CC(C)CCOC(=O)C(Br)c1ccccc1 (stereo unspecified)
inactive: [10] 95 % of control | [7] 104 % of control | [11] 88 % of control | [8] 99 % of control | [12] 88 % of control | [9] 95 % of control

CNC(=O)Oc1cccc(NC(=O)OCC(C)(C)C)c1
inactive: [7] 96 % of control | [8] 102 % of control | [9] 97 % of control

C[N+]1(C2CC3CCC2C3=O)CCOCC1 (stereo unspecified)
inactive: dose: 75.0 mg/kg/injection, schedule: Q01DX001 (ip), vehicle: saline 97 % of control | dose: 150.0 mg/kg/injection, schedule: Q01DX001 (ip), vehicle: saline 98 % of control

O=c1[nH]c(=S)n2ncnc2[nH]1
inactive: [7] 109 % of control | [8] 102 % of control | [9] 95 % of control

Cc1ccc(Cl)cc1NC(=O)Nc1cccc(C(F)(F)F)c1
inactive: dose: 50.0 mg/kg/injection, schedule: Q01DX009 (ip), vehicle: saline with Tween-80 97 % of control and 90 % of control | [13] 102 % of control and 88 % of control | [7] 101 % of control | dose: 200.0 mg/kg/injection, schedule: Q04DX002 (ip), vehicle: saline with Tween-80 98 % of control and 90 % of control | [8] 96 % of control | [12] 105 % of control and 90 % of control | dose: 400.0 mg/kg/injection, schedule: Q04DX002 (ip), vehicle: saline with Tween-80 104 % of control and 91 % of control | [9] 91 % of control

COC1c2c(nc3ccccc3c2C#N)-c2ccccc2C1(C)C (stereo unspecified)
inactive: dose: 100.0 mg/kg/injection, schedule: Q04DX003 (ip), vehicle: Klucel (hydroxypropylcellulose) (HPC) 106 % of control | dose: 200.0 mg/kg/injection, schedule: Q04DX003 (ip), vehicle: Klucel (hydroxypropylcellulose) (HPC) 95 % of control | dose: 400.0 mg/kg/injection, schedule: Q04DX003 (ip), vehicle: Klucel (hydroxypropylcellulose) (HPC) 104 % of control

O=C(Nc1ccc(C2=NCCN2)c(Cl)c1)c1ccc(C(=O)Nc2ccc(C3=NCCN3)c(Cl)c2)cc1
inactive: dose: 1.87 mg/kg/injection, schedule: Q01DX Z (ip), vehicle: carboxymethylcellulose (CMC) 124 % of control | dose: 3.75 mg/kg/injection, schedule: Q01DX Z (ip), vehicle: carboxymethylcellulose (CMC) 124 % of control | dose: 7.5 mg/kg/injection, schedule: Q01DX Z (ip), vehicle: carboxymethylcellulose (CMC) 117 % of control | dose: 30.0 mg/kg/injection, schedule: Q01DX Z (ip), vehicle: carboxymethylcellulose (CMC) 120 % of control | dose: 120.0 mg/kg/injection, schedule: Q01DX Z (ip), vehicle: carboxymethylcellulose (CMC) 86 % of control

CCOc1ccc(Br)cc1/C=N\NC(=O)c1ccccc1N(C)C
inactive: dose: 100.0 mg/kg/injection, schedule: Q04DX002 (ip), vehicle: gum acacia 90 % of control | dose: 200.0 mg/kg/injection, schedule: Q04DX002 (ip), vehicle: gum acacia 100 % of control | dose: 400.0 mg/kg/injection, schedule: Q04DX002 (ip), vehicle: gum acacia 90 % of control

COC1OC(COC(c2ccccc2)(c2ccccc2)c2ccccc2)C(OC)C(OC)C1OC (stereo unspecified)
inactive: [7] 93 % of control | [8] 94 % of control | [9] 88 % of control

O=C1NCCCC1C(=O)Nc1cccc2c1NCCC2 (stereo unspecified)
inactive: dose: 100.0 mg/kg/injection, schedule: Q01DX001 (ip), vehicle: Klucel (hydroxypropylcellulose) (HPC) 105 % of control | dose: 200.0 mg/kg/injection, schedule: Q01DX001 (ip), vehicle: Klucel (hydroxypropylcellulose) (HPC) 94 % of control | dose: 400.0 mg/kg/injection, schedule: Q01DX001 (ip), vehicle: Klucel (hydroxypropylcellulose) (HPC) 105 % of control

COc1cc(/C=C2\CCOC2=O)cc(/C=C2\CCOC2=O)c1O
inactive: [13] 89 % of control

Cn1cnc([N+](=O)[O-])c1SCC(=O)O
inactive: [4] 102 % of control | dose: 200.0 mg/kg/injection, schedule: Q04DX003 (ip), vehicle: saline 102 % of control | dose: 400.0 mg/kg/injection, schedule: Q04DX003 (ip), vehicle: saline 101 % of control

CCC(=O)c1ccccc1NC(C)=O
inactive: [10] 97 % of control | [11] 96 % of control | [12] 101 % of control
